Results on eight compounds are retold here after patent publication US20100061982A1, “3-SUBSTITUTED-1H-INDOLE, 3-SUBSTITUTED-1H-PYRROLO[2,3-B]PYRIDINE AND 3-SUBSTITUTED-1H-PYRROLO[3,2-B]PYRIDINE COMPOUNDS, THEIR USE AS MTOR KINASE AND PI3 KINASE INHIBITORS, AND THEIR SYNTHESES” (priority 2008, published 2010).

The nature of data set [1]: Microsome Stability (15 min), rat. The settings on record: microsomes, Phase I (NADPH), read-out: Microsome Stability (15 min) T ½ Phase I rat. It counts as in vitro ADME.
A short description of data set [2]: PAMPA permeability pH 7.4. A general note: The PAMPA barrier holds no transporters, so it reflects passive diffusion.
The next data set addresses PI3K alpha (Homo sapiens, UniProt P42336). As to the kind of experiment: PI3K-alpha Fluorescence Polarization Assay. It counts as biochemical.
The target of the next data set is mTOR (Homo sapiens, UniProt P42345). As to the kind of experiment: mTOR Enzyme Assay (DELFIA, purified enzyme). It counts as biochemical. Set-up: FLAG. The settings on record: read-out: mTOR Mean IC50.
A further data set in a line: physchem. Conditions: pH 7.4, aqueous buffer.
Data set [3] is described as follows: Buffer Stability (37° C.).
Data set [4] can be described thus: Microsome Stability (15 min), human. It counts as in vitro ADME. Conditions: microsomes, Phase I (NADPH), read-out: Microsome Stability (15 min) T ½ Phase I human.
Data set [5] can be described thus: CACO2 permeability a-b/b-a. Format: in vitro ADME. Conditions: human, Caco-2; for Papp A→B: a − b (first value of cell), read-out: CACO2 Pe a − b; for Papp B→A: b − a (second value of cell), read-out: CACO2 Pe b − a. On the technique in general: Passage across Caco-2 layers is used to estimate intestinal permeability.
A short description of data set [6]: Plasma Stability (37° C.), rat.
Data set [7] can be described thus: Microsome Stability (15 min), nude mouse. Format: in vitro ADME. The settings on record: microsomes, Phase I (NADPH), read-out: Microsome Stability (15 min) T ½ Phase I nude mouse.
A short description of data set [8]: Plasma Stability (37° C.), nude mouse.
Data set [9] deals with human tumor xenograft models. Conditions: cited from earlier work.

Like-named read-outs stand apart in the source and are kept apart here.

What is called IC50 is the midpoint of a concentration-inhibition curve. By solubility is commonly meant how much of the substance goes into solution per volume. The low end stands for a poorly soluble substance, the high end for a readily soluble substance.

PI3K alpha, sequence (P42336 whole entry, species assumed): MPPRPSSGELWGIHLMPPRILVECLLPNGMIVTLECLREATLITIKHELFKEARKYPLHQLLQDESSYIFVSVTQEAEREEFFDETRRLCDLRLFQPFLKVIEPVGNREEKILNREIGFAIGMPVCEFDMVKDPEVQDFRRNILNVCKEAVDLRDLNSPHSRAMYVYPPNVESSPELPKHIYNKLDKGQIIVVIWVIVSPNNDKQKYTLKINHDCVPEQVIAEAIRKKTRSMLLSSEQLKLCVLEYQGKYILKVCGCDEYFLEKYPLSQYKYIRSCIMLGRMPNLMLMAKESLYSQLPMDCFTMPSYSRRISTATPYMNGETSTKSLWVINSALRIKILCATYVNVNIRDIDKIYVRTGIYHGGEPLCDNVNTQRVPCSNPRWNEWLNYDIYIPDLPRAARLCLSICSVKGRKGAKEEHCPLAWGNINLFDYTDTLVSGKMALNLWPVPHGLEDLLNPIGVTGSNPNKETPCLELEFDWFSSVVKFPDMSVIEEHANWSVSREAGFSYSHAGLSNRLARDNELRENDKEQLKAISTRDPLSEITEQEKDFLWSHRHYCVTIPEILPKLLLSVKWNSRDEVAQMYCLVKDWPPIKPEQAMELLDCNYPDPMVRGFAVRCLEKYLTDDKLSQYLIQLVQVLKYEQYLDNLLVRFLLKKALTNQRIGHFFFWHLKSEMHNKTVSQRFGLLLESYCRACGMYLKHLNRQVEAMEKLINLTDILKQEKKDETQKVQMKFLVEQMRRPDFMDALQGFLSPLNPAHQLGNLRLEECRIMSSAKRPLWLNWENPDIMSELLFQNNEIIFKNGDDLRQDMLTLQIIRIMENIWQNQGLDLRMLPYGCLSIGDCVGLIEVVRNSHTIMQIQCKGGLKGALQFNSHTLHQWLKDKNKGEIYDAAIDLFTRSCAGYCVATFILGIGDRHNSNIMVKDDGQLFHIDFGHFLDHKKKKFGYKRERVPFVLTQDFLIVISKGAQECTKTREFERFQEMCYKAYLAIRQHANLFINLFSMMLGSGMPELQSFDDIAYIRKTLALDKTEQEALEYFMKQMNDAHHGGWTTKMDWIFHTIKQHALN
PI3K alpha, sequence (P27986 whole entry partner, species assumed): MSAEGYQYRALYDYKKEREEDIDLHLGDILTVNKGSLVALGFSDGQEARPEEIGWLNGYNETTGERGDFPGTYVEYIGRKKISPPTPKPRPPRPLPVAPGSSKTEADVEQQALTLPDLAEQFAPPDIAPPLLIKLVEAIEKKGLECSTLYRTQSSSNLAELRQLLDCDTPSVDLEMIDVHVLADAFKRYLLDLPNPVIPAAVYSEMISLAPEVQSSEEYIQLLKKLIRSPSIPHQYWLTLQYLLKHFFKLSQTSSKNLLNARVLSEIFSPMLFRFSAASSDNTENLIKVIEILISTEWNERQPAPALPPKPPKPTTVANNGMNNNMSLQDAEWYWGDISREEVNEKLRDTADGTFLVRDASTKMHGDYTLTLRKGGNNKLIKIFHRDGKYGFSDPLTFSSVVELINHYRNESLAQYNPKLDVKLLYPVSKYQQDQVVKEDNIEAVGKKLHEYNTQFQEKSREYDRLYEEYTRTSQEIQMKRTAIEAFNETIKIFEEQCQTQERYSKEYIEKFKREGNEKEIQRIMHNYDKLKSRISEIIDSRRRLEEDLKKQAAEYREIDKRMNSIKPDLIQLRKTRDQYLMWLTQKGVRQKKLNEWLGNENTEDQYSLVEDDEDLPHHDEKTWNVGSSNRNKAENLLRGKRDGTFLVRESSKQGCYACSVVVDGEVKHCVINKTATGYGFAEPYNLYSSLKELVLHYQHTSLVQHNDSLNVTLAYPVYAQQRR

As to `COc1ccc2[nH]c(-c3ccccc3)c(/C=C3\Oc4cc(OP(=O)(O)O)ccc4C3=O)c2c1` [Example 27, (2Z)-2-[(5-methoxy-2-phenyl-1H-indol-3-yl)methylene]-3-oxo-2,3-dihydro-1-benzofuran-6-yl dihydrogen phosphate], the half-life in data set [1] came to 19 min. For the same compound, the “PAMPA Pe” value in data set [2] is listed as 0 10e−6 cm/s. Further, the IC50 on PI3K alpha (read-out: PI3K alpha Mean IC50) stood at 123 nM; on mTOR, 2450 nM. In addition, the solubility in the data set “physchem” turned out to be 65 µg/mL.
In the case of `COc1ccc2[nH]c(-c3ccccc3)c(/C=C3\Oc4cc(OP(=O)(O)O)cc(OP(=O)(O)O)c4C3=O)c2c1` [Example 38, (2Z)-2-[(5-methoxy-2-phenyl-1H-indol-3-yl)methylene]-3-oxo-2,3-dihydro-1-benzofuran-4,6-diyl bis[dihydrogen (phosphate)]], the “PAMPA Pe” value in data set [2] is on record as 0.01 10e−6 cm/s. Besides, the IC50 on PI3K alpha (read-out: PI3K alpha Mean IC50) was found to be 890 nM; on mTOR, 985 nM. The same compound showed a solubility in “physchem” greater than 100 µg/mL.
On to `CN(C)C(=O)Oc1cc(OC(=O)N(C)C)c2c(c1)O/C(=C\c1cn(C)c3nccc(-c4ccccc4)c13)C2=O` [Example 43, (2Z)-2-[(1-methyl-4-phenyl-1H-pyrrolo[2,3-b]pyridin-3-yl)methylene]-3-oxo-2,3-dihydro-1-benzofuran-4,6-diyl bis(dimethylcarbamate)], for which, in data set [3], the “Buffer Stability (37° C.) % Remaining (at 16-23 hours) SGF” value turned out to be 100%, the “Buffer Stability (37° C.) % Remaining (at 16-23 hours) SIF” value was determined as 100%, the “Buffer Stability (37° C.) % Remaining (at 16-23 hours) pH 1” value stood at 100% and the “Buffer Stability (37° C.) % Remaining (at 16-23 hours) pH 4.5” value is recorded as 100%. Further, in [3], the “Buffer Stability (37° C.) % Remaining (at 16-23 hours) pH 6.6” value is on record as 100%, the “Buffer Stability (37° C.) % Remaining (at 16-23 hours) pH 7.4” value was found to be 100% and the “Buffer Stability (37° C.) % Remaining (at 16-23 hours) pH 9” value worked out at 100%. For the same compound, the half-life in data set [4] stood at 11 min. Besides, in data set [5], the Papp A→B worked out at 2.2 ×10⁻⁶ cm/s and the Papp B→A stood at 1 ×10⁻⁶ cm/s. For the same compound, the “PAMPA Pe” value in data set [2] was “Undetected”. In data set [6], the “Plasma Stability (37° C.) % Remaining (3-3.5 hours) rat” value stood at 54%. In addition, the half-life in [7] was 12 min. Moreover, in [8], the “Plasma Stability (37° C.) % Remaining (3-3.5 hours) nude mouse” value turned out to be 52%. This compound displayed a half-maximal inhibitory concentration (IC50) against PI3K alpha greater than 10000 nM. Moreover, the IC50 at mTOR is greater than 4000 nM.
`CN(C)C(=O)Oc1cccc2c1C(=O)/C(=C/c1cn(C)c3nccc(N4CC5CCC(C4)O5)c13)O2` [Example 44, (2Z)-2-{[1-methyl-4-(8-oxa-3-azabicyclo[3.2.1]oct-3-yl)-1H-pyrrolo[2,3-b]pyridin-3-yl]methylene}-3-oxo-2,3-dihydro-1-benzofuran-4-yl dimethylcarbamate]: in [3], the “Buffer Stability (37° C.) % Remaining (at 16-23 hours) SGF” value is 102%, the “Buffer Stability (37° C.) % Remaining (at 16-23 hours) SIF” value worked out at 100%, the “Buffer Stability (37° C.) % Remaining (at 16-23 hours) pH 1” value is 102% and the “Buffer Stability (37° C.) % Remaining (at 16-23 hours) pH 4.5” value came out at 100%. Also, in [3], the “Buffer Stability (37° C.) % Remaining (at 16-23 hours) pH 6.6” value is 100%, the “Buffer Stability (37° C.) % Remaining (at 16-23 hours) pH 7.4” value turned out to be 100% and the “Buffer Stability (37° C.) % Remaining (at 16-23 hours) pH 9” value is recorded as 100%. In addition, in [4], the half-life turned out to be 8 min. For the same compound, the half-life in [1] was 3 min. The “PAMPA Pe” value in data set [2] is recorded as “Undetected”. Besides, the “Plasma Stability (37° C.) % Remaining (3-3.5 hours) rat” value in data set [6] stood at 51%. Besides, the half-life in data set [7] was found to be 4 min. In addition, in [8], the “Plasma Stability (37° C.) % Remaining (3-3.5 hours) nude mouse” value is reported as 64%. On PI3K alpha, the half-maximal inhibitory concentration (IC50) was determined as 2490 nM. Further, the half-inhibitory concentration (IC50) at mTOR stood at 31 nM.
On to `COc1ccc2c(c1)c(/C=C1\Oc3cc(OC(=O)N(C(C)C)C(C)C)ccc3C1=O)c(C)n2CCN1CCN(C)CC1` [Example 47, (2Z)-2-({5-methoxy-2-methyl-1-[2-(4-methylpiperazin-1-yl)ethyl]-1H-indol-3-yl}methylene)-3-oxo-2,3-dihydro-1-benzofuran-6-yl diisopropylcarbamate], for which, in [3], the “Buffer Stability (37° C.) % Remaining (at 16-23 hours) SGF” value was determined as 98%, the “Buffer Stability (37° C.) % Remaining (at 16-23 hours) SIF” value is 94%, the “Buffer Stability (37° C.) % Remaining (at 16-23 hours) pH 1” value amounted to 97% and the “Buffer Stability (37° C.) % Remaining (at 16-23 hours) pH 4.5” value is listed as 100%. Also, in data set [3], the “Buffer Stability (37° C.) % Remaining (at 16-23 hours) pH 6.6” value is given as 95%, the “Buffer Stability (37° C.) % Remaining (at 16-23 hours) pH 7.4” value is 100% and the “Buffer Stability (37° C.) % Remaining (at 16-23 hours) pH 9” value was 96%. Besides, in data set [1], the half-life came out at 16 min. Besides, in data set [2], the “PAMPA Pe” value is given as “Undetected”. Moreover, the “Plasma Stability (37° C.) % Remaining (3-3.5 hours) rat” value in [6] worked out at 92%. In addition, the “Plasma Stability (37° C.) % Remaining (3-3.5 hours) nude mouse” value in data set [8] amounted to 82%. This compound also registered a half-maximal inhibitory concentration (IC50) on PI3K alpha greater than 10000 nM. For the same compound, the half-inhibitory concentration (IC50) on mTOR is greater than 4000 nM.
Consider `CN(C)C(=O)Oc1cc(OC(=O)N(C)C)c2c(c1)O/C(=C\c1cn(C)c3cccc(-c4ccccc4)c13)C2=O` [Example 48, (2Z)-2-[(1-methyl-4-phenyl-1H-indol-3-yl)methylene]-3-oxo-2,3-dihydro-1-benzofuran-4,6-diyl bis(dimethylcarbamate)], for which, in data set [3], the “Buffer Stability (37° C.) % Remaining (at 16-23 hours) SGF” value is reported as 100%, the “Buffer Stability (37° C.) % Remaining (at 16-23 hours) SIF” value came out at 100%, the “Buffer Stability (37° C.) % Remaining (at 16-23 hours) pH 1” value is listed as 100% and the “Buffer Stability (37° C.) % Remaining (at 16-23 hours) pH 4.5” value came out at 100%. Further, in [3], the “Buffer Stability (37° C.) % Remaining (at 16-23 hours) pH 6.6” value is on record as 100%, the “Buffer Stability (37° C.) % Remaining (at 16-23 hours) pH 7.4” value is recorded as 100% and the “Buffer Stability (37° C.) % Remaining (at 16-23 hours) pH 9” value turned out to be 100%. The half-life in data set [4] came to 25 min. Also, in data set [5], the Papp A→B stood at 0.5 ×10⁻⁶ cm/s and the Papp B→A stood at 0.5 ×10⁻⁶ cm/s. Also, in [2], the “PAMPA Pe” value is “Undetected”. In addition, in data set [6], the “Plasma Stability (37° C.) % Remaining (3-3.5 hours) rat” value is given as greater than 100%. In addition, the half-life in data set [7] was determined as 14 min. The “Plasma Stability (37° C.) % Remaining (3-3.5 hours) nude mouse” value in data set [8] worked out at 80%. At PI3K alpha, this compound returned an IC50 greater than 10000 nM. Also, the IC50 at mTOR was 3150 nM.
Take `Cn1c(=O)n(-c2ccc(C(C)(C)C#N)cc2)c2c3cc(-c4cnc5ccccc5c4)ccc3ncc21` [NVP-BEZ-235, 2-methyl-2-(4-(3-methyl-2-oxo-8-(quinolin-3-yl)-2,3-dihydro-1H-imidazo[4,5-c]quinolin-1-yl)phenyl)propanenitrile]: the “activity in human tumor xenograft models” value in [9] (prostrate (PC-3) and glioblastoma (U-87)) is recorded as “demonstrated activity”.
For `Oc1cccc(-c2nc(N3CCOCC3)c3oc4ncccc4c3n2)c1` [PI103, 3-(4-(4-morpholinyl)pyrido[3′,′: 4,5]furo[3,2-d]pyrimidin-2-yl)phenol], in data set [9] (I.P. dosing in mice, U87MG, PC3, MDA-MB-468, MDA-MB-435, HCT 116, SKOV3, IGROV-1), the “activity in human tumor xenograft models” value is on record as “demonstrated activity”.
